B1: H4: HPLC peak of factor Xa hydrolysate, masses 7299.61 and 12427.54 Da (SEQ ID NO: 15 and 16) (protein)
chain 1: SDAVHTAVPKMPKGGHGGFEPIPIDYDERALEARSDAVHTAVPKMPKGGHGGFEPIPIDYDERALEAR
chain 2: GKPQGHPHDALEARSDAVHTAVPKMPKGGHGGFEPIPIDYDERALEARSDAVHTAVPKMPKGGLGGFEPIPIDYDERALEARSDAVHTAVPKMPKGGHGGFEPIPIDYDERALEAR
modifications: Sculptin fragments generated by Xa factor
B2: H3: HPLC peak of factor Xa hydrolysate, masses 8220.55 and 6770.60 Da (SEQ ID NO: 13 and 14) (protein)
chain 1: SDAVHTAVPKMPKGGHGGFEPIPIDYDERALEARSDAVHTAVPKMPKGGHGGFEPIPIDYDERALHALEHHHHHH
chain 2: SDAVHTAVPKMPKGGHGGFEPIPIDYDERALEARSDAVHTAVPKMPKGGHGGFEPIPIDYDER
modifications: Sculptin fragments generated by Xa factor
B3: H2: HPLC peak of factor Xa hydrolysate, masses 3667.50 and 4582.40 Da (SEQ ID NO: 11 and 12) (protein)
chain 1: SDAVHTAVPKMPKGGHGGFEPIPIDYDERALEAR
chain 2: SDAVHTAVPKMPKGGHGGFEPIPIDYDERALHALEHHHHHH
modifications: Sculptin fragments generated by Xa factor

Assays:
[1] = in plasma in healthy human volunteers; intravenously; cited from earlier work
thrombin [2] = target: T1, thrombin (Homo sapiens, UniProt P00734); details: literature values; cited from earlier work
thrombin [3] = target: T1, thrombin; assay: Thrombin inhibition test of recombinant protein fragments generated by factor Xa; format: biochemical; design: Brown and cyan colors represent heavy and light chain of thrombin respectively; details: fragment 100 pM, thrombin 0.1 nM, S-2238 15 μM
Procedure: Recombinant protein (10 μM) was incubated with or without factor Xa 1 μM in phosphate buffer 50 mM containing NaCl 150 mM, and phosphatidylserine and phosphatidylcholine 50 μM, pH 7.4 for 18 h at 37° C. (A) Reaction mixtures were split through reverse phase HPLC column C-18. (B) Gathered peaks (H1-H5) were subjected to MALDI-TOF MS and thrombin inhibition test (see table 1, for correspondent peptide sequence). (C) Typical progress curves for hydrolysis of chromogenic substrate S-2238 15 μM by thrombin 0.1 nM in absence (trace Ctrl) and presence of recombinant protein fragment 100 pM (traces H1 and H3) or preserved recombinant protein (trace Scpt) in phosphate buffer 50 mM containing NaCl 150 mM and 0.1% of PEG 6000, pH 7.4 at 37° C. (D) Percentage of thrombin inhibition by recombinant protein and fragments thereof. Reaction conditions of percentage of thrombin inhibition were obtained from (C).
In addition, recombinant protein was incubated with factor Xa for 18 h and resulting peptides were split by reverse phase chromatography (FIG. 6A). Peaks (named as H1, H2, H3 H4 and H5) were gathered and undergone to mass spectrometry MALDI-TOF (FIG. 6B). In accordance with analysis of mass spectrometry, H1 corresponds to average mass of 5153.57 Da, H2 corresponds to average mass of 3667.50 Da and 4582.40 Da and H3 corresponds to average mass of 8220.55 Da and 6770.60 Da. Similarly, H4 corresponds to average mass of 7299.61 Da and 12427.54 Da and H5 corresponds to 16990.90, 12427.54 Da and 11843.17 Da (FIG. 6B, Table 1). Further, fractions (H1, H2, H3 and H4) were undergone to test of thrombin inhibition (FIG. 6C). Fractions H1, H2, H3 and H4 retained thrombin inhibition activity of about 50%, 45%, 70% and 80% respectively, of preserved no hydrolyzed recombinant protein (FIG. 6D). Peak H5 had mainly preserved recombinant protein, thus it was not considered for test of thrombin inhibition.

Molecule	Half-life [1] [min]	Inhibition Type (thrombin [2])	Ki (thrombin [2]) [nM]	thrombin inhibition activity retained, of preserved no hydrolyzed recombinant protein (thrombin [3])
Bivalirudin	25	No competing	1.9 ± 2.6	–
GKPQGHPHDALEARSDAVHTAVPKMPKGGHGGFEPIPIDYDERALEAR (Sculptin fragments generated by Xa factor) [H1, HPLC peak of recombinant protein hydrolyzed by factor Xa, average mass 5153.57 Da]	–	–	–	about 50%
CC1CNc2c(cccc2S(=O)(=O)N[C@@H](CCCNC(=N)N)C(=O)N2CC[C@@H](C)C[C@@H]2C(=O)O)C1 (stereo partly drawn) [Argatroban]	50	No competing	–	–
B1	–	–	–	~80%
B2	–	–	–	~70%
B3	–	–	–	~45%

— patent publication US12187785B2, “Recombinant protein and fragments thereof, method for producing said recombinant protein, synthetic gene and use of sculptin or recombinant protein for preparing a medicament or pharmaceutical composition for the prophylaxis and/or treatment of thromboembolic diseases or as a direct and specific …” (priority 2017, dated 2025)
